Assay [1] deals with T1, Discoidin domain-containing receptor 2 (Homo sapiens, UniProt Q16832).
T1 sequence (Q16832 whole entry): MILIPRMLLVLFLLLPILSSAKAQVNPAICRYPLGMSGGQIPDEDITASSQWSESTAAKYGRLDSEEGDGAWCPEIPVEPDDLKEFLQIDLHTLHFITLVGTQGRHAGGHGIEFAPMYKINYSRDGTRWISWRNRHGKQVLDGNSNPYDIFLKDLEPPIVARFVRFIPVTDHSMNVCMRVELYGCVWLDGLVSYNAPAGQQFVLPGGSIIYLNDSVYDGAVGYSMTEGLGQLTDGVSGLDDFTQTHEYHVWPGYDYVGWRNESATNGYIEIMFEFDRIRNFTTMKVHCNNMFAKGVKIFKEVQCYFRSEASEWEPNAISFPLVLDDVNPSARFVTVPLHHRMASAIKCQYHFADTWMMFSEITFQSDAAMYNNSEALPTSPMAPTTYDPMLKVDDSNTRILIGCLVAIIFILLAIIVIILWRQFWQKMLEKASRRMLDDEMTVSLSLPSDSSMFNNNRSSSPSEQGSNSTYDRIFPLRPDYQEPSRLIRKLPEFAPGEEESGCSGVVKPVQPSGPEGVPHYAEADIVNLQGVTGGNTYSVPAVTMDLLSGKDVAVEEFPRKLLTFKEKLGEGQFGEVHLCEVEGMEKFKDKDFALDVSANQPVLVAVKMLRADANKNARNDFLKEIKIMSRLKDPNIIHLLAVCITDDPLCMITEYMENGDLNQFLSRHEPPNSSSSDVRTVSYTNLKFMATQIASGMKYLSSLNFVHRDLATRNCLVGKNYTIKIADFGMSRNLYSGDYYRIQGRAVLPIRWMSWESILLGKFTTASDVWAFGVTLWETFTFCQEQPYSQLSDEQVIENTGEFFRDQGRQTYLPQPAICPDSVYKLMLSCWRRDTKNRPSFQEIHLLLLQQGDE
Briefly: DDR1 and DDR2 Biochemical Assay. The method, then: (§1) The capacity of compounds to bind to DDR1 and DDR2 was quantified using a LanthaScreen Eu Kinase Binding Assay. Recombinant human DDR1 (2.5 nM; aa440-876 containing a GST tag) and DDR2 (1.75 nM; aa427-855 containing a GST tag) were diluted in assay buffer (50 mM HEPES pH7.3, 10 mM MgCl2, 1 mM EGTA and 0.01% Tween) with various concentrations of compound in a 384-well plate and a volume of 5 uL. After a 30-minute incubation at room temperature, 2.5 uL of Eu-anti GST antibody (diluted to 1 nM in assay buffer) plus Kinase Tracer 178 (diluted in assay buffer to 5 nM for DDR1 and 10 nM for DDR2) were added to the plate. Following 60-minute incubation at room temperature, time-resolved fluorescence was measured on a BMG Labtech PHERAstar plate reader. DMSO (1%) and reference compound (1 μM) were used to generate the Max and Min assay signals, respectively. Data was analysed using a four-parameter logistic model to calculate IC50 values, with at least two independent replicates were performed for each compound.

Assay [2] deals with Epithelial discoidin domain-containing receptor 1 (Homo sapiens, UniProt Q08345). In words: DDR1 and DDR2 Biochemical Assay. The method, then: as §1
Epithelial discoidin domain-containing receptor 1, sequence (Q08345 whole entry, the tested form may be a part): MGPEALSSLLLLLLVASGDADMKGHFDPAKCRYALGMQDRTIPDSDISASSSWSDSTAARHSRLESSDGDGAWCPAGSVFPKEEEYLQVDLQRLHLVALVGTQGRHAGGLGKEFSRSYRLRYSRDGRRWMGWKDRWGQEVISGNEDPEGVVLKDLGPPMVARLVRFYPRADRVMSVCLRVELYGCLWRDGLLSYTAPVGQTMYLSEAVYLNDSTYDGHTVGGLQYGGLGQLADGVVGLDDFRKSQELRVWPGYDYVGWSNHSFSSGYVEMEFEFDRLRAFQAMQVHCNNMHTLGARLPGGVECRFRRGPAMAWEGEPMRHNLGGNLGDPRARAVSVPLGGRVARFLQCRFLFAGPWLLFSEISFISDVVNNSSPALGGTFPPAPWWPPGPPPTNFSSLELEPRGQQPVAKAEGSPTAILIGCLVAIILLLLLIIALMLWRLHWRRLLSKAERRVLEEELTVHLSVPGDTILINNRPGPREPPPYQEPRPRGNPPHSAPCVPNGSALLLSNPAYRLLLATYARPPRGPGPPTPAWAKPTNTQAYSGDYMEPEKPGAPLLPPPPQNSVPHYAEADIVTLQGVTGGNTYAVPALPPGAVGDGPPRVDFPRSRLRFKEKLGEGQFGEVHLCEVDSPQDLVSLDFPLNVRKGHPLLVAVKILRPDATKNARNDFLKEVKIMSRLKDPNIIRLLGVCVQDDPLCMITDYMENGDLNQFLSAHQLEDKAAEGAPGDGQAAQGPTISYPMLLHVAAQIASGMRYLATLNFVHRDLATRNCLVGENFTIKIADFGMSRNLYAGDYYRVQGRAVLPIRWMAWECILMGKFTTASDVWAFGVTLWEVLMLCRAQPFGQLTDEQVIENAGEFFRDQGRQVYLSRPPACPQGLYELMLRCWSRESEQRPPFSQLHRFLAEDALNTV

These results are taken from BindingDB's records for patent US20260055102 (Redx Pharma, 2026).

Each structure is given as a SMILES string.

On to `CN(C)c1cccc2c1n(-c1ccc(-c3cncc4c3cnn4C)cc1)c(=O)n2CC(=O)NCC(F)(F)F` [US20260055102, Example 80], for which the IC50 (commonly the concentration that inhibits the measured activity by half) in assay [1] was over 1000 nM.

Consider `Cc1cccc2c1n(-c1ccc(-c3cncc4c3cnn4C)cc1)c(=O)n2CC(=O)N1CCC[C@H]1CF` [US20260055102, Example 26], for which the IC50 in assay [1] is over 1000 nM.

As for `Cc1cccc2c1n(-c1ccc(-c3cncc4c3cnn4C)cn1)c(=O)n2CC(=O)N1CCO[C@H](C(F)(F)F)C1` [US20260055102, Example 61], the IC50 in assay [2] is under 10 nM.

As for `Cc1nc(-n2c(=O)n(CC(=O)NCC(F)(F)F)c3cccc(C)c32)cnc1-c1cncc2c1cnn2C` [US20260055102, Example 100], the IC50 in assay [1] and in assay [2] was over 1000 nM throughout.
